Test results from patent US5574006A, “Nasally administrable peptide compositions on hydroxyapatite carriers” (Dott Research Laboratory, priority 1993, dated 1996).

What was measured:
[1] = parameters: species or system healthy male adults; conditions: in vivo
Protocol: A nasally administrable composition in powdery form was prepared by formulating salmon calcitonin as a physiologically active peptide at the rate of 200 MRC (IU) per 25 mg with hydroxyapatite as a carrier having a mean particle size ranging from 40 to 45 μm.
(§1) The resulting composition was nasally administered once at the dose of 25 mg to six healthy male adults and the blood (2.5 ml) was collected from each of the tested adults prior to administration and then at 5, 10, 15, 20, 30, 45, 60, 90, 120 and 180 minutes after administration. The concentration of the salmon calcitonin in each of the collected blood samples was assayed with a standard RIA assay kit.

[2] = parameters: species or system healthy male adults; conditions: in vivo; remark: listed apart in the source
Protocol: A nasally administrable composition in powdery form was prepared by formulating salmon calcitonin as a physiologically active peptide at the rate of 200 MRC (IU) per 25 mg with hydroxyapatite as a carrier.
as §1

blood sugar = test: Average fall of the blood sugar in rabbits after insulin administration; format: in vivo, New Zealand rabbits; conditions: S.C., 2 IU/rabbit
Protocol: The resulting composition was nasally administered once to six male New Zealand rabbits. The average fall of the blood sugar was measured and represented in percentage (%) at 0, 15, 30, 60, 120 and 180 minutes after administration. For comparison, 2 (IU)/rabbit of insulin was administered subcutaneously to six male New Zealand rabbits and the average fall of the blood sugar was measured and represented in […] (%) at 0, 60, 120, 240 and 360 minutes after administration.

Substance: hydroxyapatite
- absorption of calcitonin (in words) [1]: effective to attain better absorption of calcitonin
- absorption of calcitonin through the nasal cavity (in words) [2]: effective to attain better absorption of calcitonin through the nasal cavity

Substance: insulin [Comparison]
- Average fall of the blood sugar (blood sugar; 0 min): 100%
- Average fall of the blood sugar (blood sugar; 60 min): 57%
- Average fall of the blood sugar (blood sugar; 120 min): 56%
- Average fall of the blood sugar (blood sugar; 240 min): 84%
- Average fall of the blood sugar (blood sugar; 360 min): 94%
